“And” between values parts separate entries of the source, which are not always exact repeats. Equal values may be shown once. Read-outs that look alike come from different tables or passages of the source.
Key:
[1] = system: L. major promastigotes; experiment: L. major promastigote drug treatment, parasite survival after 48 h; assay type: cell-based; conditions: 48 h, promastigote
Procedure: The effect of PZA was first investigated with promastigotes of L. major. PZA was diluted in medium and added to cultures. After 48 h, parasite multiplication was determined by counting parasites in culture. […] Incubation of L. major with 1 μg/ml amphotericin B (as a positive control) caused 100% mortality of promastigotes and 90% of amastigotes.
Mid-log phase (day 3 of culture) L. major promastigotes were employed. Parasite concentration was adjusted to 10^6 promastigotes/ml and seeded into 96-well plates in a volume of 100 μl (final concentration, 10^5 promastigotes/well). PZA was tested in triplicate in a concentration gradient from 1,000-0.5 μg/ml and added to the wells containing the parasite in a volume of 100 μl. A negative control was included with three wells containing only parasites and medium. The positive control consisted of amphotericin B (1 μg/ml). This concentration was previously employed by us because this concentration is equivalent to drug concentrations achieved in human plasma. After 48 h of incubation at 26° C., 10 μL of each well was diluted in 90 μL of the vital colorant (trypan blue in PBS) and the parasites were quantified in a Neubauer chamber. Data was normalized as percentage of survival compared to untreated controls. The Lethal Dose 50 (LD50) was extrapolated from the graph as the concentration of the products that inhibited the parasitic growth at 50% of the values of the negative control.

[2] = PZA-treated children, Zhu et al.; cited from earlier work
[3] = system: L. donovani
Procedure: To induce visceral leishmaniasis, we inoculated mice (n=8) intravenously with 5×10^6 L. donovani 1S and treated them with PZA (900-150 mg/kg) for 3 wks, 5 days/wk. The lowest dose was equivalent to dose of PZA used in humans (2 g/day). A group of mice treated with vehicle (3.8% DMSO in water) was included as a control. C57BL/6 mice infected with L. donovani typically show detectable parasites in liver and spleens for 8-12 wk. […] We euthanized mice 3 wks after the initiation of the experiment and determined total body weight, liver and spleen weights, and number of parasites in livers.

[4] = system: uninfected J774 cells; assay type: cell-based; conditions: 48 h; for percentage of survival compared to untreated control: mouse
Procedure: The potential cytotoxicity of PZA toward the mammalian cell line was determined by co-incubation of PZA with uninfected J774 cells for 48 h (10^4 cells/well) in 96-well culture plates. […] At 200 μg/ml, the compound started to show signs of toxicity, resulting in mortality of 25% of the cell monolayer. […] The control drug amphotericin B caused 5% mortality of the cell monolayer at the concentration tested (1 μg/ml).
J774 cell viability following incubation with PZA was also determined. Cells were seeded onto 8-well Labtek chambers as above and incubated with different concentrations of PZA (up to 1 mg/ml) for 48 h, stained with Diff-Quick and counted under light microscope. The percentage of viable cells was determined after quantifying the number of cells present per field (in 25 fields, ca. 500 cells). Percentage of survival and MIC50 were calculated as above.

[5] = mouse models of VL (FIG. 8 legend)

SMILES: NC(=O)c1cnccn1 [PZA, pyrazinamide]
- MIC50 ([1]; Leishmania major): 10 µM and 16.2 µg/mL
- percentage of survival compared to untreated control ([1]; PZA 1 μg/ml): 88 ± 18%
- percentage of survival compared to untreated control ([1]; PZA 12.5 μg/ml): 50 ± 18%
- percentage of survival compared to untreated control ([1]; PZA 50 μg/ml): 38 ± 14%
- percentage of survival compared to untreated control ([1]; PZA 200 μg/ml): 20 ± 10%
- percentage of survival compared to untreated control ([1]; PZA 1000 μg/ml): 10 ± 12%
- serum concentration [2]: 41000 ng/mL
- size of livers and spleens ([3]; PZA 900-150 mg/kg, 3 wks): significantly reduced
- liver parasites ([3]; PZA at all doses tested (900-150 mg/kg), 3 wks): significantly decreased
- hepatomegaly and splenomegaly [3, 5]: prevented hepatomegaly and splenomegaly
- reduction of liver parasites [3, 5]: 2-4 log 10
- mortality of the cell monolayer ([4]; PZA 200 μg/ml): 25%
- mortality of the macrophages ([4]; PZA 1 mg/ml): 100%
- percentage of survival compared to untreated control ([4]; 1 μg/ml): 100 ± 11%
- percentage of survival compared to untreated control ([4]; 12.5 μg/ml): 100 ± 10%
- percentage of survival compared to untreated control ([4]; 50 μg/ml): 100 ± 12%
- percentage of survival compared to untreated control ([4]; 100 μg/ml): 100 ± 15%
- percentage of survival compared to untreated control ([4]; 200 μg/ml): 85 ± 12%
- percentage of survival compared to untreated control ([4]; 1000 μg/ml): 0%

Reference: US20120157396A1, “PYRAZINAMIDE FOR IMMUNOSTIMULATION AND THE TREATMENT OF LEISHMANIASES” (priority 2009, published 2012)
